In patent US8003360B2, “Debaryomyces castellii phytase” (Adisseo France S.A.S., priority 2005, dated 2011):
Entries after “also recorded” stand apart in the source; their conditions may differ. Where two headings read alike, the source gives them in different places.

Experiments:
D. castellii phytase [1] = test: Substrate specificity, phosphate release kinetics (Table 6A); type: biochemical, Debaryomyces castellii; details: 250 mM sodium acetate buffer, 1 mM CaCl2, pH 4, 37° C.
Description: The reaction is triggered by the addition of the enzymatic extract (1 volume). The reaction is stopped by acidification of the medium with 20% trichloroacetic acid (1 volume of reaction medium+1 volume of acid). The amount of phosphate released is determined after various incubation times.

D. castellii phytase [2] = test: Influence of effectors on phytase activity; type: biochemical, Debaryomyces castellii; details: for inhibition of phytase activity: concentrations see Table 3
[3] = molecular target: T1, Debaryomyces castellii CBS 2923 phytase, native (wild type), SEQ ID No. 2 (Schwanniomyces capriottii, UniProt A2TBB4); test: Influence of effectors on the phytase activity; type: biochemical; details: for effect on the phytase activity (in words): Table 3
Description: (§1) The amount of phosphate released is measured by colorimetery. The visualizing solution, prepared extemporaneously, contains iron sulphate (380 mM, 1 volume) and ammonium heptamolybdate (12 mM, 4 volumes). The absorbance at 700 nm is measured after 30 minutes of visualization at ambient temperature (1 volume of reaction medium+1 volume of visualizing solution), using a UV/visible spectrophotometer (Beckman DU 530).

[4] = test system: Debaryomyces castellii CBS2923 phytase; test: Influence of the environment (additives, calcium, buffer molarity) on thermostability of the phytase; type: physicochemical
Description: At the end of treatment, the extract is cooled in water at +4° C. […] Three types of elements are tested: • sugars or sugar alcohol: sucrose, lactose, trehalose, arabinose, glycerol, • the absence of calcium, • the molarity of the buffer. […] At the end of treatment, the extract is cooled in water to +4° C. […] Materials and Methods).

[5] = test system: Schwanniomyces occidentalis phytase; details: Segueilha et al., 1992; cited from earlier work
D. castellii phytase [6] = test: Hydrolysis of various inositol phosphates (Table 6B); type: biochemical, Debaryomyces castellii; details: hydrolysis 30 minutes at 37° C., pH 4
D. castellii phytase [7] = test: Kinetic constants of the native phytase on substrates; type: biochemical, Debaryomyces castellii; details: +37° C., pH 4 with sodium phytate, pH 5.5 with p-NPP
Description: (§2) The effect of pH on the phytase activity is determined using the following buffer solutions: 200 mM glycine-HCl, pH 2-3.5; 200 mM sodium acetate-acetic acid, pH 3.5-7; and 200 mM tris-HCl, pH 7-9. The reactions are carried out at +37° C. using the phytate as substrate. The optimum temperature is determined by varying the temperature from +30° C. to +80° C. […] After the heat treatment, the mixture is cooled in ice and the phytase activity is determined using the phytate as substrate.
(§3) The kinetic constants are determined on 2 substrates.

[8] = molecular target: recombinant Debaryomyces castellii CBS 2923 phytase (recPhyt, expressed in Pichia pastoris), SEQ ID No. 2 (Schwanniomyces capriottii, UniProt A2TBB4)
[9] = molecular target: T1, Debaryomyces castellii CBS 2923 phytase, native (wild type), SEQ ID No. 2; test: Kinetic constants (specificity study) of the native phytase; type: biochemical; details: native enzyme
Description: as §2, §1, §3

recombinant phytase = test: Kinetic constants of the recombinant phytase on substrates; type: biochemical, Debaryomyces castellii; details: Lineweaver-Burk representation
[10] = substrate: O=P(O)(O)O[C@H]1[C@H](OP(=O)(O)O)[C@@H](OP(=O)(O)O)[C@H](OP(=O)(O)O)[C@@H](OP(=O)(O)O)[C@H]1OP(=O)(O)O; test: purified protein, by the assay type
[11] = additive 10% in 250 mM acetate buffer pH 4, 1 mM calcium
[12] = effector 5 mM, phytate control = 100
[13] = CaCl2 0 mM (absence of calcium), 250 mM acetate buffer pH 4
[14] = other: native enzyme, 37° C., pH 4 for sodium phytate, pH 5.5 for p-NPP

Molecule: O=P(O)(O)OCC(O)CO (stereo in doubt) [L-α-glycerophosphate]
- % activity (D. castellii phytase [1]; substrate 4 mM): 78%

Molecule: OCCS [2-mercaptoethanol]
- effect on phytase activity (D. castellii phytase [2]; inhibitors tested, see Table 3): absence of effect
- % activity ([3]; effector 3 mM, phytate control 9 mM = 100): 107%

Molecule: Nc1ncnc2c1ncn2[C@@H]1O[C@H](COP(=O)(O)OP(=O)(O)O)[C@@H](O)[C@H]1O [Adenosine 5′-diphosphate]
- % activity (D. castellii phytase [1]; substrate 4 mM): 120%

Molecule: Nc1ncnc2c1ncn2[C@@H]1O[C@H](COP(=O)(O)O)[C@@H](O)[C@H]1O [Adenosine 5′-monophosphate]
- % activity (D. castellii phytase [1]; substrate 4 mM): 50%

Molecule: Nc1ncnc2c1ncn2[C@@H]1O[C@H](COP(=O)(O)OP(=O)(O)OP(=O)(O)O)[C@@H](O)[C@H]1O [Adenosine 5′-triphosphate]
- % activity (D. castellii phytase [1]; substrate 4 mM): 133%

Molecule: O=C[C@@H](O)[C@H](O)[C@H](O)CO [Arabinose, arabinose]
- activity after 1 h at 20° C. [4, 11]: 90
- activity after 1 h at 66.5° C. [4, 11]: 36

Molecule: [Ca+2].[Cl-].[Cl-] [CaCl2]
- % activity (D. castellii phytase [2]; [12]): 90%
- activity after 1 h at 20° C. [4, 13]: 100
- activity after 1 h at 66.5° C. [4, 13]: 1

Molecule: [Cl-].[Cl-].[Co+2] [CoCl2]
- % activity (D. castellii phytase [2]): 42.3%

Molecule: [Cl][Cr][Cl] [CrCl2]
- % activity (D. castellii phytase [2]; [12]): 107.6%

Molecule: [Cl][Cu][Cl] [CuCl2]
- % activity (D. castellii phytase [2]; [12]): 66.6%
- effect on phytase activity [5]: sensitive

Molecule: O=C(O)C(O)COP(=O)(O)O (stereo not drawn) [D(−)3-phosphoglyceric acid]
- % activity (D. castellii phytase [1]; substrate 4 mM): 95%

Molecule: O=C(O)CN(CCN(CC(=O)O)CC(=O)O)CC(=O)O [EDTA]
- % activity (D. castellii phytase [2]): 104.5%

Molecule: [Cl][Fe]([Cl])[Cl] [FeCl3]
- % activity (D. castellii phytase [2]; [12]): 92%

Molecule: O=C(CO)[C@@H](O)[C@H](O)[C@H](O)COP(=O)(O)O [Fructose-6-phosphate]
- % activity (D. castellii phytase [1]; substrate 4 mM): 35%

Molecule: O=C[C@H](O)[C@@H](O)[C@H](O)[C@H](O)COP(=O)(O)O [Glucose-6-phosphate]
- % activity (D. castellii phytase [1]; substrate 4 mM): 82%

Molecule: OCC(O)CO [Glycerol, glycerol]
- activity after 1 h at 20° C. [4, 11]: 96
- activity after 1 h at 66.5° C. [4, 11]: 56

Molecule: [Cl][Hg][Cl] [HgCl2]
- % activity (D. castellii phytase [2]; [12]): 96.2%

Molecule: O=P(O)(O)OC1[C@H](O)[C@H](O)C(O)[C@H](O)[C@H]1O (stereo partly shown) [Ins(1)P1]
- % activity (D. castellii phytase [6]; substrate 1 mM): 58%

Molecule: O=P(O)(O)O[C@H]1[C@H](O)[C@@H](O)[C@H](OP(=O)(O)O)[C@@H](O)[C@H]1O [Ins(1,4)P2]
- % activity (D. castellii phytase [6]; substrate 0.1 mM): 65%

Molecule: O=P(O)(O)O[C@@H]1[C@H](O)[C@H](O)[C@@H](OP(=O)(O)O)[C@H](OP(=O)(O)O)[C@H]1O [Ins(1,4,5)P3]
- % activity (D. castellii phytase [6]; substrate 0.1 mM): 56%

Molecule: O=P(O)(O)OC1[C@@H](O)[C@H](O)C(O)[C@H](O)[C@H]1O (stereo partly shown) [Ins(2)P1]
- % activity (D. castellii phytase [6]; substrate 1 mM): 84%

Molecule: OC[C@H]1O[C@@H](O[C@H]2[C@H](O)[C@@H](O)C(O)O[C@@H]2CO)[C@H](O)[C@@H](O)[C@H]1O (stereo partly shown) [Lactose, lactose]
- activity after 1 h at 20° C. [4, 11]: 95
- activity after 1 h at 66.5° C. [4, 11]: 47

Molecule: [Cl-].[Cl-].[Mg+2] [MgCl2]
- % activity (D. castellii phytase [2]; [12]): 68.7%

Molecule: [Cl][Mn][Cl] [MnCl2]
- inhibition of phytase activity (D. castellii phytase [2]): 72%
- % activity (D. castellii phytase [2]; [12]): 28.8%

Molecule: O=C1CCC(=O)N1Br [N-bromosuccinimide]
- % activity (D. castellii phytase [2]; effector 0.1 and 1 mM, phytate control = 100): 1%
- effect on phytase activity (D. castellii phytase [2]; inhibitors tested, see Table 3): completely inhibits
- effect on the phytase activity (in words) [3]: completely inhibits the phytase activity

Molecule: C=C(OP(=O)(O)O)C(=O)O [Phospho(enol)pyruvate]
- % activity (D. castellii phytase [1]; substrate 4 mM): 130%

Molecule: O=P(O)(O)O[C@H]1[C@H](OP(=O)(O)O)[C@@H](OP(=O)(O)O)[C@H](OP(=O)(O)O)[C@@H](OP(=O)(O)O)[C@H]1OP(=O)(O)O [Phytic acid, myo-inositol hexakisphosphate]
- % activity (D. castellii phytase [1]; substrate 9 mM (control)): 100%
- % activity (D. castellii phytase [6]; substrate 9 mM (control)): 91%

Molecule: O=P(O)(O)O[C@H]1[C@H](OP(=O)(O)O)[C@@H](OP(=O)(O)O)[C@H](OP(=O)(O)O)[C@@H](OP(=O)(O)O)[C@H]1OP(=O)(O)O [Sodium phytate, sodium phytate]
- Vm (D. castellii phytase [7]): 35.8 µmol/min/mg
- affinity (in words) ([8]; phytate compared with p-NPP): greater affinity

Molecule: OC[C@H]1O[C@@](CO)(O[C@H]2O[C@H](CO)[C@@H](O)[C@H](O)[C@H]2O)[C@@H](O)[C@@H]1O [Sucrose, sucrose]
- activity after 1 h at 20° C. [4, 11]: 97
- activity after 1 h at 66.5° C. [4, 11]: 57

Molecule: OC[C@H]1O[C@H](O[C@H]2O[C@H](CO)[C@@H](O)[C@H](O)[C@H]2O)[C@H](O)[C@@H](O)[C@@H]1O [Trehalose, trehalose]
- activity after 1 h at 20° C. [4, 11]: 94
- activity after 1 h at 66.5° C. [4, 11]: 56

Molecule: [Cl-].[Cl-].[Zn+2] [ZnCl2]
- % activity (D. castellii phytase [2]; [12]): 57%
- effect on phytase activity [5]: sensitive

Molecule: O=P(O)(O)O[C@H]1[C@H](OP(=O)(O)O)[C@@H](OP(=O)(O)O)[C@H](OP(=O)(O)O)[C@@H](OP(=O)(O)O)[C@H]1OP(=O)(O)O [calcium phytate]
- affinity of the phytase relative to p-nitrophenyl phosphate (pNPP) ([9]; calcium phytate versus pNPP): 4 times

Molecule: II [iodine]
- % activity (D. castellii phytase [2]): 25.6%
- inhibition of phytase activity (D. castellii phytase [2]): 75%

Molecule: O=C(O)CI [iodoacetic acid]
- % activity (D. castellii phytase [2]): 100%
- effect on phytase activity (D. castellii phytase [2]): does not cause any inhibition; also recorded: absence of effect
- effect on the phytase activity (in words) [3]: does not cause any inhibition of the activity

Molecule: O=[N+]([O-])c1ccc(OP(=O)(O)O)cc1 [pNPP, p-nitrophenyl phosphate]
- Km (D. castellii phytase [7]): 2270 µM
- Vm (D. castellii phytase [7]): 30.9 µmol/min/mg
- % activity (D. castellii phytase [1]; substrate 4 mM): 135%
- Km ([9]; 37° C., pH 4 for sodium phytate, pH 5.5 for p-NPP): 2270 µM
- Km (recombinant phytase): 2050 µM
- Vm (recombinant phytase): 274.6 U/mg
- Km ([8]; recombinant enzyme, Lineweaver-Burk, 37° C., pH 4 for sodium phytate, pH 5.5 for p-NPP): 2050 µM

Molecule: N[C@@H](Cc1c[nH]c2ccccc12)C(=O)O [tryptophan]
- effect on the phytase activity (in words) [3]: re-establishes the activity

B1: Debaryomyces castellii CBS 2923 phytase, native (wild type), SEQ ID No. 2 (Schwanniomyces capriottii) (protein)
chain: VSVSKLINNGLLLVGQGAYQDLASPQQASVEQYNIIRFLGGAAPYIQNKGFGISTDIPDQCTLEQVQLFSRHGERYPSTGSGKKYKAVYEKLMSYNGTFKGELAFLNDDYEYFVPDSVYLEKETSPKNSDSIYAGTTDAMKHGIAFRTKYGELFDTNDTLPVFTSNSGRVYQTSQYFARGFMGDDFSNDTVKTNIISEDADMGANSLTPRDGCFNYNENANTAIVDEYTTEYLTKALNRFKASNPGLNITEDDVSNLFGYCAYELNVKGASPMCDIFTNEEFIQYSYSVDLDDYYSNSAGNNMTRVIGSTLLNASLELLNHDKNENKIWLSFTHDTDIEIFHSAIGILIPDEDLPVDYTPFPSPYSHVGITPQGARTIIEKYACGNESYVRYVINDAVIPIKKCSSGPGFSCNLNDYNDYVAERVAGTNYVEQCGNNNASAVTFYWDYETTNYTASLINS
- Km [10, 14]: 532 µM
- Vmax [10, 14]: 35.8 µmol/min/mg

B2: recombinant Debaryomyces castellii CBS 2923 phytase (recPhyt, expressed in Pichia pastoris), SEQ ID No. 2 (Schwanniomyces capriottii) (protein)
chain: MVSVSKLINNGLLLVGQGAYQDLASPQQASVEQYNIIRFLGGAAPYIQNKGFGISTDIPDQCTLEQVQLFSRHGERYPSTGSGKKYKAVYEKLMSYNGTFKGELAFLNDDYEYFVPDSVYLEKETSPKNSDSIYAGTTDAMKHGIAFRTKYGELFDTNDTLPVFTSNSGRVYQTSQYFARGFMGDDFSNDTVKTNIISEDADMGANSLTPRDGCFNYNENANTAIVDEYTTEYLTKALNRFKASNPGLNITEDDVSNLFGYCAYELNVKGASPMCDIFTNEEFIQYSYSVDLDDYYSNSAGNNMTRVIGSTLLNASLELLNHDKNENKIWLSFTHDTDIEIFHSAIGILIPDEDLPVDYTPFPSPYSHVGITPQGARTIIEKYACGNESYVRYVINDAVIPIKKCSSGPGFSCNLNDYNDYVAERVAGTNYVEQCGNNNASAVTFYWDYETTNYTASLINS
- Km ([10]; 37.0 °C): 240 µM
- Vmax ([10]; 37.0 °C): 137.8 U/mg
